Data reported in patent US20210269434A1, “TRICYCLIC COMPOUNDS AS INHIBITORS OF KRAS” (Incyte Corporation, priority 2020, published 2021).
Read-outs that look alike come from different tables or passages of the source.

What was measured:
KRAS G12C = KRAS G12C (Homo sapiens, UniProt P01116, G12C); experiment: GDP-GTP exchange assay (KRAS_G12C exchange); type: biochemical; conditions: bodipy-GDP loaded KRAS G12C 2.5 nM, SOS1 150 nM, GppNHp; 2 hours pre-incubation, 2 hours reaction; read-out: G12C_exchange
Sequence of KRAS G12C (P01116 1-188 isoform P01116-2 G12C): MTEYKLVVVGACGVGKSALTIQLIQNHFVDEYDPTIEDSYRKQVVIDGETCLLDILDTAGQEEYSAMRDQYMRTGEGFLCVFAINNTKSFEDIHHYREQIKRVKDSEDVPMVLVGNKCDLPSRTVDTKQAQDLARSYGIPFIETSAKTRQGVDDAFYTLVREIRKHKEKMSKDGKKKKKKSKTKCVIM
In short: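 Fluorescence exchange of bodipy-GDP for GppNHp, SOS1-driven, read at 485/520 nm; IC50 from four-parameter variable-slope fit. Both mutants used 2.5 nM final labelled protein and a 2 h compound pre-incubation. G12C reaction had 500 uM GppNHp and 150 nM SOS1 for 2 h; G12D ran 4 h.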

[1] = test system: MIA PaCa-2 (KRAS G12C) cells; experiment: Cellular pERK HTRF assay (KRAS_G12C pERK); type: cell-based, human; conditions: read-out: G12C_pERK
In short: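 MIA PaCa-2 cells plated overnight, then exposed to compound for 4 h at 37 °C (G12C compounds). Phospho-ERK1/2 measured in lysates by HTRF (665/620 nm) after overnight antibody incubation; IC50 from percent inhibition versus log concentration.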

[2] = Homo sapiens, MIA PaCa-2, 4 hours incubation

| IC50 (KRAS G12C) [nM] | IC50 [1, 2] [nM] | IC50 ([1]; 4 hours incubation) [nM] | SMILES |
| --- | --- | --- | --- |
| ≤ 100 | ≤ 100 |  | C=CC(=O)N1CC[C@H](n2nnc3c(N4CC(C)(N(C)C)C4)nc4c(F)c(-c5cccc(Cl)c5C)c(C)cc4c32)C[C@H]1CC#N [Example 101, 2-((2S,4S)-1-acryloyl-4-(7-(3-chloro-2-methylphenyl)-4-(3-(dimethylamino)-3-methylazetidin-1-yl)-6-fluoro-8-methyl-1H-[1,2,3]triazolo[4,5-c]quinolin-1-yl)piperidin-2-yl)acetonitrile] |
| 100 to 1000 | 1000 to 5000 |  | C=CC(=O)N1CC(n2c(=O)n(C[C@@H]3CCCN3C)c3c(=O)n(-c4c(C)ccnc4C(C)C)c4nc(-c5cc(O)cc6ccccc56)c(F)cc4c32)C1 [Example 27, (S)-1-(1-acryloylazetidin-3-yl)-8-fluoro-7-(3-hydroxynaphthalen-1-yl)-5-(2-isopropyl-4-methylpyridin-3-yl)-3-((1-methylpyrrolidin-2-yl)methyl)-3,5-dihydro-1H-imidazo[4,5-c][1,8]naphthyridine-2,4-dione] |
| ≤ 100 | ≤ 100 |  | COc1c(C)cccc1-c1c(C(F)(F)F)cc2c(nc(N3CC(C)(N(C)C)C3)c3nnn([C@H]4CCN(C(=O)/C=C/CN(C)C)[C@H](CC#N)C4)c32)c1F [Example 246, 2-((2S,4S)-4-(7-(2-methoxy-3-methylphenyl)-4-(3-(dimethylamino)-3-methylazetidin-1-yl)-6-fluoro-8-(trifluoromethyl)-1H-[1,2,3]triazolo[4,5-c]quinolin-1-yl)-1-((E)-4-(dimethylamino)but-2-enoyl)piperidin-2-yl)acetonitrile] |
| ≤ 100 | ≤ 100 |  | C=CC(=O)N1CCC(n2nnc3c(N4CC(C)(N(C)C)C4)nc4c(F)c(-c5cccc6cccc(Cl)c56)c(C)cc4c32)C[C@H]1CC#N (stereo partly drawn) [Example 225, 2-((2S)-1-acryloyl-4-(7-(8-chloronaphthalen-1-yl)-4-(3-(dimethylamino)-3-methylazetidin-1-yl)-6-fluoro-8-methyl-1H-[1,2,3]triazolo[4,5-c]quinolin-1-yl)piperidin-2-yl)acetonitrile] |
| ≤ 100 | ≤ 100 |  | C=CC(=O)N1CC[C@H](n2nnc3c(OC[C@@H]4CCCN4C)nc4c(F)c(-c5cccc(Cl)c5C)c(Cl)cc4c32)C[C@H]1CC#N [Example 86, 2-((2S,4S)-1-acryloyl-4-(8-chloro-7-(3-chloro-2-methylphenyl)-6-fluoro-4-(((S)-1-methylpyrrolidin-2-yl)methoxy)-1H-[1,2,3]triazolo[4,5-c]quinolin-1-yl)piperidin-2-yl)acetonitrile] |
| ≤ 100 | ≤ 100 |  | CC#CC(=O)N1CC[C@H](n2nnc3c(OC[C@@H]4CCCN4C)nc4c(F)c(-c5ccccc5C(F)(F)F)c(C)cc4c32)C[C@H]1CC#N [Example 162a, 2-((2S,4S)-1-(but-2-ynoyl)-4-(6-fluoro-8-methyl-4-(((S)-1-methylpyrrolidin-2-yl)methoxy)-7-(2-(trifluoromethyl)phenyl)-1H-[1,2,3]triazolo[4,5-c]quinolin-1-yl)piperidin-2-yl)acetonitrile] |
| ≤ 100 | ≤ 100 |  | Cc1cccc(-c2c(C)cc3c(nc(O[C@@H](C)CN(C)C)c4nnn([C@H]5CCN(C(=O)/C=C/CF)[C@H](CC#N)C5)c43)c2F)c1C [Example 143, 2-((2S,4S)-4-(4-(((S)-1-(dimethylamino)propan-2-yl)oxy)-7-(2,3-dimethylphenyl)-6-fluoro-8-methyl-1H-[1,2,3]triazolo[4,5-c]quinolin-1-yl)-1-((E)-4-fluorobut-2-enoyl)piperidin-2-yl)acetonitrile] |
| ≤ 100 | ≤ 100 |  | CC#CC(=O)N1CC[C@H](n2nnc3c(OC[C@@H]4CCCN4C)nc4c(Cl)c(-c5ccc(F)c6cccnc56)c(Cl)cc4c32)C[C@H]1CC#N (single isomer, unassigned) [Example 270a] |
| ≤ 100 | ≤ 100 |  | C=CC(=O)N1CC[C@H](n2cnc3c(N4CC(N(C)C)C4)nc4c(F)c(-c5cccc(C)c5C)c(Cl)cc4c32)C[C@H]1CC#N [Example 16, 2-((2S,4S)-1-acryloyl-4-(8-chloro-4-(3-(dimethylamino)azetidin-1-yl)-7-(2,3-dimethylphenyl)-6-fluoro-1H-imidazo[4,5-c]quinolin-1-yl)piperidin-2-yl)acetonitrile] |
| ≤ 100 | ≤ 100 |  | Cc1c(Cl)cccc1-c1c(C(F)(F)F)cc2c(nc(N3CC(C)(N(C)C)C3)c3nnn([C@H]4CCN(C(=O)/C=C/CN(C)C)[C@H](CC#N)C4)c32)c1F [Example 240, 2-((2S,4S)-4-(7-(3-chloro-2-methylphenyl)-4-(3-(dimethylamino)-3-methylazetidin-1-yl)-6-fluoro-8-(trifluoromethyl)-1H-[1,2,3]triazolo[4,5-c]quinolin-1-yl)-1-((E)-4-(dimethylamino)but-2-enoyl)piperidin-2-yl)acetonitrile] |
| ≤ 100 | ≤ 100 |  | C=CC(=O)N1CC[C@H](n2cnc3c(N4CC(N(C)C)C4)nc4c(F)c(-c5cc(O)cc6ccccc56)c(Cl)cc4c32)C[C@H]1CC#N (single isomer, unassigned) [Example 47a] |
| ≤ 100 | ≤ 100 |  | CC#CC(=O)N1CC[C@H](n2nnc3c(O[C@@H](C)CN(C)C)nc4c(F)c(-c5ccc(F)cc5)c(C)cc4c32)C[C@H]1CC#N [Example 133, 2-((2S,4S)-1-(but-2-ynoyl)-4-(4-(((S)-1-(dimethylamino)propan-2-yl)oxy)-6-fluoro-7-(4-fluorophenyl)-8-methyl-1H-[1,2,3]triazolo[4,5-c]quinolin-1-yl)piperidin-2-yl)acetonitrile] |
| ≤ 100 |  | ≤ 100 | C=CC(=O)N1CC[C@H](n2cnc3c(N4CC(N(C)C)C4)nc4c(F)c(-c5cncc6ccccc56)c(Cl)cc4c32)C[C@H]1CC#N (single isomer, unassigned) [Example 73b] |
| ≤ 100 | ≤ 100 |  | COC/C=C/C(=O)N1CC[C@H](n2cnc3c(N4CC5(CCCN5C)C4)nc4c(F)c(-c5c(C)c(Cl)cc6[nH]ncc56)c(Cl)cc4c32)C[C@H]1CC#N [Example 84a, 2-((2S,4S)-4-(8-chloro-7-(6-chloro-5-methyl-1H-indazol-4-yl)-6-fluoro-4-(5-methyl-2,5-diazaspiro[3.4]octan-2-yl)-1H-imidazo[4,5-c]quinolin-1-yl)-1-((E)-4-methoxybut-2-enoyl)piperidin-2-yl)acetonitrile] |
| ≤ 100 | ≤ 100 |  | C=CC(=O)N1CC[C@H](n2cnc3c(N4CC(N(C)C)C4)nc4c(F)c(-c5ccccc5C)c(Cl)cc4c32)C[C@H]1CC#N [Example 20, 2-((2S,4S)-1-acryloyl-4-(8-chloro-4-(3-(dimethylamino)azetidin-1-yl)-6-fluoro-7-(o-tolyl)-1H-imidazo[4,5-c]quinolin-1-yl)piperidin-2-yl)acetonitrile] |
| ≤ 100 | ≤ 100 |  | C=CC(=O)N1CC[C@H](n2nnc3c(OC[C@@H]4CCCN4C)nc4c(F)c(-c5ccccc5)c(Cl)cc4c32)C[C@H]1CC#N [Example 155, 2-((2S,4S)-1-acryloyl-4-(8-chloro-6-fluoro-4-(((S)-1-methylpyrrolidin-2-yl)methoxy)-7-phenyl-1H-[1,2,3]triazolo[4,5-c]quinolin-1-yl)piperidin-2-yl)acetonitrile] |
| ≤ 100 | ≤ 100 |  | C=CC(=O)N1CC[C@H](n2cnc3c(N4CC(N(C)C)C4)nc4c(F)c(-c5cccc(C#N)c5C)c(Cl)cc4c32)C[C@H]1CC#N [Example 17, 3-(1-((2S,4S)-1-acryloyl-2-(cyanomethyl)piperidin-4-yl)-8-chloro-4-(3-(dimethylamino)azetidin-1-yl)-6-fluoro-1H-imidazo[4,5-c]quinolin-7-yl)-2-methylbenzonitrile] |
| ≤ 100 | ≤ 100 |  | C=CC(=O)N1C[C@H](n2cnc3c(N4CC(N(C)C)C4)nc4c(F)c(-c5cccc6ccccc56)c(Cl)cc4c32)C[C@@H]1CC#N [Example 63, 2-((2R,4R)-1-acryloyl-4-(8-chloro-4-(3-(dimethylamino)azetidin-1-yl)-6-fluoro-7-(naphthalen-1-yl)-1H-imidazo[4,5-c]quinolin-1-yl)pyrrolidin-2-yl)acetonitrile] |
| ≤ 100 | ≤ 100 |  | C=CC(=O)N1CC[C@H](n2cnc3c(N4CC(N(C)C)C4)nc4c(F)c(-c5cc(O)cc6ccccc56)c(Cl)cc4c32)C[C@H]1C#N [Example 22, (2S,4S)-1-acryloyl-4-(8-chloro-4-(3-(dimethylamino)azetidin-1-yl)-6-fluoro-7-(3-hydroxynaphthalen-1-yl)-1H-imidazo[4,5-c]quinolin-1-yl)piperidine-2-carbonitrile] |
| ≤ 100 | ≤ 100 |  | CC#CC(=O)N1CC[C@H](n2nnc3c(N4CC(C)(N(C)C)C4)nc4c(F)c(-c5cccc(Cl)c5C)c(C)cc4c32)C[C@H]1CC#N [Example 103, 2-((2S,4S)-1-(but-2-ynoyl)-4-(7-(3-chloro-2-methyl-phenyl)-4-(3-(dimethyl-amino)-3-methylazetidin-1-yl)-6-fluoro-8-methyl-1H-[1,2,3]triazolo[4,5-c]quinolin-1-yl)piperidin-2-yl)acetonitrile] |
| ≤ 100 | ≤ 100 |  | C=CC(=O)N1C[C@H](OC)[C@@H](n2cnc3c(N4CC(N(C)C)C4)nc4c(F)c(-c5cc(O)cc6ccccc56)c(Cl)cc4c32)C1 (relative stereo) [Example 30b, 1-((trans)-3-(8-chloro-4-(3-(dimethylamino)azetidin-1-yl)-6-fluoro-7-(3-hydroxynaphthalen-1-yl)-1H-imidazo[4,5-c]quinolin-1-yl)-4-methoxypyrrolidin-1-yl)prop-2-en-1-one] |
